Test results as given in patent US20080139604A1, “Method of Treating Atherosclerosis, Dyslipidemias and Related Conditions” (priority 2005, published 2008).

System: DP-independent nicotinic acid induced vasodilation
Assay: nicotinic acid induced vasodilation in mice genetically devoid of the DP receptor
Format: in vivo, mouse
Conditions: mice genetically devoid of the DP receptor (DP1), administration or pre-administration
Experimental: Thus, some portion of nicotinic acid induced vasodilation may not be dependent on the DP receptor. This DP-independent vasodilation can be inhibited by the administration or pre-administration of aspirin, a COX-1/COX-II inhibitor, to the mice. Human doses range from about 20-25 mg to as high as about 650 mg, administered about one hour to about 30 minutes before the administration of nicotinic acid, up to simultaneous administration, and repeated as necessary up to about every four hours. Thus a combination of DP receptor antagonist and aspirin is particularly effective to suppress nicotinic acid induced flushing in humans, attenuating some or all of the flushing that is not suppressed by the […] or by aspirin alone.

CC(=O)Oc1ccccc1C(=O)O [aspirin]
inhibition of DP-independent nicotinic acid induced vasodilation: inhibited
